Test results as given in patent publication US20250313533A1, “QUINOLINE CARBOXYLIC ACID ESTER COMPOUND AND PREPARATION METHOD AND USE THEREOF” (priority 2019, published 2025).

How the values were obtained:
[1] = system: indoor potted cucumber seedlings; test: Effect of improving growth and development of crops; type: in vivo; set-up: Rate of growth rate increase (%): concentration or dose not given beside the values; conditions: versus blank control; for Rate of chlorophyll content increase (%) / Rate of leaf area increase (%): 14 days after application; for Rate of growth rate increase (%): plant height 14 days after application; for Rate of leaf area increase (%): second leaf
Procedure, shortened: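 Pot-grown seedlings kept indoors; height plus second-leaf length (base to tip) and width (upper shoulder) taken pre-treatment and at day 14. Derived: growth-rate increase %, leaf area gain, SPAD chlorophyll gain.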

cucumber seedlings = test: Safety for plant growth after application; type: in vivo; conditions: dosage 200 ppm
Procedure, shortened: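 Indoor potted cucumber seedlings were treated with the compounds, and crop safety was judged from effects on plant height growth rate, chlorophyll content and leaf area.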

[2] = system: fruit blotch in watermelons; test: whole plant or invertebrate; conditions: read-out: efficacy against fruit blotch in watermelons
[3] = system: pathogenic bacteria causing fruit blotch in watermelons; test: In vitro bactericidal activity, fruit blotch in watermelons; type: cell-based, acidovorax; conditions: read-out: inhibitory rate; for inhibition at 1 ppm: dosage 1 ppm; for inhibition at 5 ppm: dosage 5 ppm
[4] = system: pathogenic bacteria causing bacterial angular leaf spot in cucumbers; test: In vitro bactericidal activity, bacterial angular leaf spot in cucumbers; type: cell-based, pseudomonas; conditions: read-out: inhibitory rate; for inhibition at 1 ppm: dosage 1 ppm; for inhibition at 5 ppm: dosage 5 ppm
[5] = system: pathogenic bacteria causing bacterial blight in rice; test: whole plant or invertebrate; type: cell-based, xanthomonas; conditions: read-out: inhibitory rate
[6] = system: pathogenic bacteria causing bacterial wilt in cassava; test: organism not typed; type: cell-based; conditions: read-out: inhibitory rate
bacterial blight in rice = test: whole plant or invertebrate; conditions: Oryza sativa, read-out: efficacy against bacterial blight in rice
[7] = system: bacterial wilt in tobacco; test: whole plant or invertebrate; conditions: Nicotiana tabacum, read-out: efficacy against bacterial wilt in tobacco
[8] = system: pathogenic bacteria causing black shank in potatoes; test: In vitro bactericidal activity, black shank in potatoes; type: cell-based; conditions: read-out: inhibitory rate; for inhibition at 1 ppm: dosage 1 ppm; for inhibition at 5 ppm: dosage 5 ppm
[9] = system: stem rot in sweet potatoes; test: whole plant or invertebrate; conditions: read-out: efficacy against stem rot in sweet potatoes
[10] = system: pathogenic bacteria causing stem rot in sweet potatoes; test: In vitro bactericidal activity, stem rot in sweet potatoes; type: cell-based, dikia; conditions: read-out: inhibitory rate; for inhibition at 1 ppm: dosage 1 ppm; for inhibition at 5 ppm: dosage 5 ppm
[11] = system: pathogenic bacteria causing bacterial wilt in tobacco; test: whole plant or invertebrate; type: cell-based, ralstonia; conditions: read-out: inhibitory rate
[12] = system: pathogenic bacteria causing fire blight in pears; test: In vitro bactericidal activity, fire blight in pears; type: cell-based, erwinia; conditions: Erwinia, read-out: inhibitory rate; for inhibition at 1 ppm: dosage 1 ppm; for inhibition at 5 ppm: dosage 5 ppm
[13] = system: soft rot in Chinese cabbages; test: whole plant or invertebrate; conditions: 48 h, read-out: efficacy against soft rot in Chinese cabbages
black shank in potatoes = test: Living crops in vivo protective activity, potatoes (root irrigation); conditions: Solanum tuberosum, read-out: efficacy against black shank in potatoes; for pest or weed control at 5 ppm: dosage 5 ppm; for pest or weed control at 10 ppm: dosage 10 ppm
Description: Root irrigation was carried out on the potatoes for tests according to the designed concentration of the agents. The dosage for each plant was 200 mL and was kept consistent (also for the control). The black shank bacteria were inoculated on the second day after the application. The results were investigated according to the disease condition.

[14] = system: pathogenic bacteria causing black rot in Chinese cabbages; test: In vitro bactericidal activity, black rot in Chinese cabbages; type: cell-based, xanthomonas; conditions: Xanthomonas, read-out: inhibitory rate; for inhibition at 1 ppm: dosage 1 ppm; for inhibition at 5 ppm: dosage 5 ppm

COCCOC(=O)c1cn(C2CC2)c2cc(N(C)C)c(F)cc2c1=O [Compound 414]
Rate of chlorophyll content increase (%) [1]: 15%
Rate of growth rate increase (%) [1]: 12%
Rate of leaf area increase (%) [1]: 18%
safety for plant growth (discoloration, necrosis, wilt, malformation) (cucumber seedlings): safe for plant growth
pest or weed control at 5 ppm [2]: ≥ 90%
pest or weed control at 10 ppm [2]: ≥ 90%
inhibition at 1 ppm [3]: ≥ 90%
inhibition at 5 ppm [3]: ≥ 90%
inhibition at 1 ppm [4]: ≥ 90%
inhibition at 5 ppm [4]: ≥ 90%
inhibition at 1 ppm [5]: ≥ 90%
inhibition at 5 ppm [5]: ≥ 90%
inhibition at 1 ppm [6]: ≥ 90%
inhibition at 5 ppm [6]: ≥ 90%
pest or weed control at 5 ppm (bacterial blight in rice): ≥ 90%
pest or weed control at 10 ppm (bacterial blight in rice): ≥ 90%
pest or weed control at 5 ppm [7]: ≥ 90%
pest or weed control at 10 ppm [7]: ≥ 90%
inhibition at 1 ppm [8]: ≥ 90%
inhibition at 5 ppm [8]: ≥ 90%
pest or weed control at 5 ppm [9]: ≥ 90%
pest or weed control at 10 ppm [9]: ≥ 90%
inhibition at 1 ppm [10]: ≥ 90%
inhibition at 5 ppm [10]: ≥ 90%
inhibition at 1 ppm [11]: ≥ 90%
inhibition at 5 ppm [11]: ≥ 90%
inhibition at 1 ppm [12]: ≥ 90%
inhibition at 5 ppm [12]: ≥ 90%
pest or weed control at 5 ppm [13]: ≥ 90%
pest or weed control at 10 ppm [13]: ≥ 90%
pest or weed control at 5 ppm (black shank in potatoes): ≥ 90%
pest or weed control at 10 ppm (black shank in potatoes): ≥ 90%
inhibition at 1 ppm [14]: ≥ 90%
inhibition at 5 ppm [14]: ≥ 90%

CCN(CC)c1cc2c(cc1F)c(=O)c(C(=O)OCCO)cn2C1CC1 [Compound 419]
Rate of chlorophyll content increase (%) [1]: 15%
Rate of growth rate increase (%) [1]: 11%
Rate of leaf area increase (%) [1]: 17%
safety for plant growth (discoloration, necrosis, wilt, malformation) (cucumber seedlings): safe for plant growth
pest or weed control at 5 ppm [2]: ≥ 90%
pest or weed control at 10 ppm [2]: ≥ 90%
inhibition at 1 ppm [3]: ≥ 90%
inhibition at 5 ppm [3]: ≥ 90%
inhibition at 1 ppm [4]: ≥ 90%
inhibition at 5 ppm [4]: ≥ 90%
inhibition at 1 ppm [5]: ≥ 90%
inhibition at 5 ppm [5]: ≥ 90%
inhibition at 1 ppm [6]: ≥ 90%
inhibition at 5 ppm [6]: ≥ 90%
pest or weed control at 5 ppm (bacterial blight in rice): ≥ 90%
pest or weed control at 10 ppm (bacterial blight in rice): ≥ 90%
pest or weed control at 5 ppm [7]: ≥ 90%
pest or weed control at 10 ppm [7]: ≥ 90%
inhibition at 1 ppm [8]: ≥ 90%
inhibition at 5 ppm [8]: ≥ 90%
pest or weed control at 5 ppm [9]: ≥ 90%
pest or weed control at 10 ppm [9]: ≥ 90%
inhibition at 1 ppm [10]: ≥ 90%
inhibition at 5 ppm [10]: ≥ 90%
inhibition at 1 ppm [11]: ≥ 90%
inhibition at 5 ppm [11]: ≥ 90%
inhibition at 1 ppm [12]: ≥ 90%
inhibition at 5 ppm [12]: ≥ 90%
pest or weed control at 5 ppm [13]: ≥ 90%
pest or weed control at 10 ppm [13]: ≥ 90%
pest or weed control at 5 ppm (black shank in potatoes): ≥ 90%
pest or weed control at 10 ppm (black shank in potatoes): ≥ 90%
inhibition at 1 ppm [14]: ≥ 90%
inhibition at 5 ppm [14]: ≥ 90%

CCN(CC)c1cc2c(cc1F)c(=O)c(C(=O)OCCOC)cn2C1CC1 [Compound 420, 2-methoxyethyl 1-cyclopropyl-7-(diethylamino)-6-fluoro-4-oxo-1,4-dihydroquinoline-3-carboxylate]
Rate of chlorophyll content increase (%) [1]: 9%
Rate of growth rate increase (%) [1]: 9%
Rate of leaf area increase (%) [1]: 12%
safety for plant growth (discoloration, necrosis, wilt, malformation) (cucumber seedlings): safe for plant growth
pest or weed control at 5 ppm [2]: ≥ 90%
pest or weed control at 10 ppm [2]: ≥ 90%
inhibition at 1 ppm [3]: ≥ 90%
inhibition at 5 ppm [3]: ≥ 90%
inhibition at 1 ppm [4]: ≥ 90%
inhibition at 5 ppm [4]: ≥ 90%
inhibition at 1 ppm [5]: ≥ 90%
inhibition at 5 ppm [5]: ≥ 90%
inhibition at 1 ppm [6]: ≥ 90%
inhibition at 5 ppm [6]: ≥ 90%
pest or weed control at 5 ppm (bacterial blight in rice): ≥ 90%
pest or weed control at 10 ppm (bacterial blight in rice): ≥ 90%
pest or weed control at 5 ppm [7]: ≥ 90%
pest or weed control at 10 ppm [7]: ≥ 90%
inhibition at 1 ppm [8]: ≥ 90%
inhibition at 5 ppm [8]: ≥ 90%
pest or weed control at 5 ppm [9]: ≥ 90%
pest or weed control at 10 ppm [9]: ≥ 90%
inhibition at 1 ppm [10]: ≥ 90%
inhibition at 5 ppm [10]: ≥ 90%
inhibition at 1 ppm [11]: ≥ 90%
inhibition at 5 ppm [11]: ≥ 90%
inhibition at 1 ppm [12]: ≥ 90%
inhibition at 5 ppm [12]: ≥ 90%
pest or weed control at 5 ppm [13]: ≥ 90%
pest or weed control at 10 ppm [13]: ≥ 90%
pest or weed control at 5 ppm (black shank in potatoes): ≥ 90%
pest or weed control at 10 ppm (black shank in potatoes): ≥ 90%
inhibition at 1 ppm [14]: ≥ 90%
inhibition at 5 ppm [14]: ≥ 90%

O=C(OCCO)c1cn(C2CC2)c2cc(N3CCOCC3)c(F)cc2c1=O [Compound 425]
Rate of chlorophyll content increase (%) [1]: 13%
Rate of growth rate increase (%) [1]: 10%
Rate of leaf area increase (%) [1]: 11%
safety for plant growth (discoloration, necrosis, wilt, malformation) (cucumber seedlings): safe for plant growth
pest or weed control at 5 ppm [2]: ≥ 90%
pest or weed control at 10 ppm [2]: ≥ 90%
inhibition at 1 ppm [3]: ≥ 90%
inhibition at 5 ppm [3]: ≥ 90%
inhibition at 1 ppm [4]: ≥ 90%
inhibition at 5 ppm [4]: ≥ 90%
inhibition at 1 ppm [5]: ≥ 90%
inhibition at 5 ppm [5]: ≥ 90%
inhibition at 1 ppm [6]: ≥ 90%
inhibition at 5 ppm [6]: ≥ 90%
pest or weed control at 5 ppm (bacterial blight in rice): ≥ 90%
pest or weed control at 10 ppm (bacterial blight in rice): ≥ 90%
pest or weed control at 5 ppm [7]: ≥ 90%
pest or weed control at 10 ppm [7]: ≥ 90%
inhibition at 1 ppm [8]: ≥ 90%
inhibition at 5 ppm [8]: ≥ 90%
pest or weed control at 5 ppm [9]: ≥ 90%
pest or weed control at 10 ppm [9]: ≥ 90%
inhibition at 1 ppm [10]: ≥ 90%
inhibition at 5 ppm [10]: ≥ 90%
inhibition at 1 ppm [11]: ≥ 90%
inhibition at 5 ppm [11]: ≥ 90%
inhibition at 1 ppm [12]: ≥ 90%
inhibition at 5 ppm [12]: ≥ 90%
pest or weed control at 5 ppm [13]: ≥ 90%
pest or weed control at 10 ppm [13]: ≥ 90%
pest or weed control at 5 ppm (black shank in potatoes): ≥ 90%
pest or weed control at 10 ppm (black shank in potatoes): ≥ 90%
inhibition at 1 ppm [14]: ≥ 90%
inhibition at 5 ppm [14]: ≥ 90%

COCCOC(=O)c1cn(C2CC2)c2cc(N3CCOCC3)c(F)cc2c1=O [Compound 426, 2-methoxyethyl 1-cyclopropyl-6-fluoro-7-morpholinyl-4-oxo-1,4-dihydroquinoline-3-carboxylate]
Rate of chlorophyll content increase (%) [1]: 10%
Rate of growth rate increase (%) [1]: 9%
Rate of leaf area increase (%) [1]: 11%
safety for plant growth (discoloration, necrosis, wilt, malformation) (cucumber seedlings): safe for plant growth
pest or weed control at 5 ppm [2]: ≥ 90%
pest or weed control at 10 ppm [2]: ≥ 90%
inhibition at 1 ppm [3]: ≥ 90%
inhibition at 5 ppm [3]: ≥ 90%
inhibition at 1 ppm [4]: ≥ 90%
inhibition at 5 ppm [4]: ≥ 90%
inhibition at 1 ppm [5]: ≥ 90%
inhibition at 5 ppm [5]: ≥ 90%
inhibition at 1 ppm [6]: ≥ 90%
inhibition at 5 ppm [6]: ≥ 90%
pest or weed control at 5 ppm (bacterial blight in rice): ≥ 90%
pest or weed control at 10 ppm (bacterial blight in rice): ≥ 90%
pest or weed control at 5 ppm [7]: ≥ 90%
pest or weed control at 10 ppm [7]: ≥ 90%
inhibition at 1 ppm [8]: ≥ 90%
inhibition at 5 ppm [8]: ≥ 90%
pest or weed control at 5 ppm [9]: ≥ 90%
pest or weed control at 10 ppm [9]: ≥ 90%
inhibition at 1 ppm [10]: ≥ 90%
inhibition at 5 ppm [10]: ≥ 90%
inhibition at 1 ppm [11]: ≥ 90%
inhibition at 5 ppm [11]: ≥ 90%
inhibition at 1 ppm [12]: ≥ 90%
inhibition at 5 ppm [12]: ≥ 90%
pest or weed control at 5 ppm [13]: ≥ 90%
pest or weed control at 10 ppm [13]: ≥ 90%
pest or weed control at 5 ppm (black shank in potatoes): ≥ 90%
pest or weed control at 10 ppm (black shank in potatoes): ≥ 90%
inhibition at 1 ppm [14]: ≥ 90%
inhibition at 5 ppm [14]: ≥ 90%

O=C(OCCO)c1cn(C2CC2)c2cc(N3CCCCC3)c(F)cc2c1=O [Compound 431]
Rate of chlorophyll content increase (%) [1]: 15%
Rate of growth rate increase (%) [1]: 12%
Rate of leaf area increase (%) [1]: 11%
safety for plant growth (discoloration, necrosis, wilt, malformation) (cucumber seedlings): safe for plant growth
pest or weed control at 5 ppm [2]: ≥ 90%
pest or weed control at 10 ppm [2]: ≥ 90%
inhibition at 1 ppm [3]: ≥ 90%
inhibition at 5 ppm [3]: ≥ 90%
inhibition at 1 ppm [4]: ≥ 90%
inhibition at 5 ppm [4]: ≥ 90%
inhibition at 1 ppm [5]: ≥ 90%
inhibition at 5 ppm [5]: ≥ 90%
inhibition at 1 ppm [6]: ≥ 90%
inhibition at 5 ppm [6]: ≥ 90%
pest or weed control at 5 ppm (bacterial blight in rice): ≥ 90%
pest or weed control at 10 ppm (bacterial blight in rice): ≥ 90%
pest or weed control at 5 ppm [7]: ≥ 90%
pest or weed control at 10 ppm [7]: ≥ 90%
inhibition at 1 ppm [8]: ≥ 90%
inhibition at 5 ppm [8]: ≥ 90%
pest or weed control at 5 ppm [9]: ≥ 90%
pest or weed control at 10 ppm [9]: ≥ 90%
inhibition at 1 ppm [10]: ≥ 90%
inhibition at 5 ppm [10]: ≥ 90%
inhibition at 1 ppm [11]: ≥ 90%
inhibition at 5 ppm [11]: ≥ 90%
inhibition at 1 ppm [12]: ≥ 90%
inhibition at 5 ppm [12]: ≥ 90%
pest or weed control at 5 ppm [13]: ≥ 90%
pest or weed control at 10 ppm [13]: ≥ 90%
pest or weed control at 5 ppm (black shank in potatoes): ≥ 90%
pest or weed control at 10 ppm (black shank in potatoes): ≥ 90%
inhibition at 1 ppm [14]: ≥ 90%
inhibition at 5 ppm [14]: ≥ 90%
